In patent EP0612246B1, “PHARMACEUTICAL COMPOSITIONS OF GALLIUM COMPLEXES OF 3-HYDROXY-4-PYRONES” (BERNSTEIN, Lawrence Richard, priority 1991, dated 1993):

What was measured:
[1] = Oral bioavailability study in rabbits: serum gallium by graphite furnace atomic absorption after oral gavage; assay type: in vivo, New Zealand white rabbits; conditions: for Mean gallium content of rabbit serum: 10 mg elemental gallium per kg, fasted 18 hours, 3 animals
Method: A test of the oral bioavailability of the 3:1 ethyl maltol:gallium complex in rabbits was conducted. In this test, the complex was given to rabbits and compared to a solution of gallium nitrate. Six female New Zealand white rabbits weighing between 2.68 and 2.91 kg were used, and were not fed for 18 hours before starting the experiment. A suspension of the 3:1 gallium ethyl maltol complex in double distilled water was prepared with a concentration of 10 mg elemental gallium per 4 ml of suspension. […] A small amount of solid sodium carbonate was added to the latter solution to bring the pH up to about 6. Each of the two solutions was given to three rabbits by oral gavage (through a tube inserted through the mouth to the stomach) in the amount of 4 ml per kg of body weight. The stomach tubes were flushed by three ml of water following administration of the solutions.
Six ml of blood was taken from each rabbit at 1 hour, 2 hours, 4 hours, 8 hours, and 24 hours following administration of the solutions, and the serum separated and frozen. Control samples of blood were taken 24 hours earlier. The frozen serum samples were then sent to an independent testing laboratory for determination of the gallium contents by graphite furnace atomic absorption analysis. The testing laboratory received numbered serum samples, and never had any knowledge of the experimental conditions used to produce the samples. Due to uncertainties in the analytical procedures for gallium in serum, the relative proportions of gallium in the serum samples are considered more significant than the actual reported concentrations.
It is important to note that no attempt was made to counteract the adverse effects of the 3:1 gallium ethyl maltol complex being exposed to the acidic conditions of the stomach. This study should therefore be considered to give a minimal value for the oral bioavailability of the gallium ethyl maltol complex compared to gallium nitrate.

[2] = assay type: physicochemical
Method: The stability of the neutral 3:1 maltol:gallium complex was studied in aqueous solutions at various pH values. The complex was studied at two concentrations in double distilled deionized water: 2.5 X 10^-6 M and 1.0 X 10^-2 M. The pH was adjusted by adding either 1N HCl or 1N Na2CO3. The stability of the complex was determined using ultraviolet spectroscopy over the region 200-450 nm at 25°C. Several absorption peaks are observed in this range, including those at about 212-217 nm, 248 nm, 273 nm, 318 nm, and 385 nm. An isobesic point occurs over much of the pH range at about 290 nm. In the very dilute solutions (2.5 X 10^-6 M), the neutral 3:1 complex appears to be stable from about pH 4.5 to 9.5. For the less dilute solutions (1.0 X 10^-2 M), the determination was more difficult due to the very high absorbance.

**Q.** Which “absorption compared to gallium nitrate of equal volume and gallium concentration” value ([1]; rabbit, in vivo, po) does the source give for `CCc1occc(=O)c1[O][Ga]([O]c1c(CC)occc1=O)[O]c1c(CC)occc1=O` [gallium ethyl maltol] here?
**A.** significantly higher amounts

**Q.** Which “stability region (pH)” value [2] does the source give for `Cc1occc(=O)c1[O-].Cc1occc(=O)c1[O-].Cc1occc(=O)c1[O-].[Ga+3]` [gallium maltol] here?
**A.** very similar to that of the highly dilute solution, possibly slightly wider

**Q.** With gallium nitrate as the compound, how does the “Mean gallium content of rabbit serum” value ([1]; 1 hour after oral gavage) read?
**A.** 51 ng/mL

**Q.** What about the “Mean gallium content of rabbit serum” value ([1]; 2 hours after oral gavage) of the same compound?
**A.** 99 ng/mL

**Q.** What about the “Mean gallium content of rabbit serum” value ([1]; 4 hours after oral gavage) of the same compound?
**A.** 118 ng/mL

**Q.** What about the “Mean gallium content of rabbit serum” value ([1]; 8 hours after oral gavage) of the same compound?
**A.** 103 ng/mL

**Q.** What about the “Mean gallium content of rabbit serum” value ([1]; 24 hours after oral gavage) of the same compound?
**A.** 64 ng/mL
